In general, microsomal CLint refers to the capacity of the preparation to metabolise the compound, expressed as a volume cleared per time.

Data set [1] in a line: Thermodynamic solubility protocol 2 (FaSSIF, FeSSIF). The conditions noted are these: 25° C. Format: physicochemical. How it is done: In a 8 mL glass vial, 1-2 mg of dry matter of the test compound were mixed with the suitable buffers (Fed State Simulated Intestine Fluid (FeSSIF) or Fasted State Simulated Intestine Fluid (FaSSIF)) to reach a theoretical concentration of 4 mM. The solutions were allowed to further equilibrate at 25° C. on a thermostatic shaker. After 4 and 24 hours of shaking, respectively, the incubation mixtures were filtered through HTS filter plates using a vacuum manifold. The filtrates of test compounds were diluted 500-fold with acetonitrile/buffer mixtures with 2% DMSO before measuring. In parallel, using a 20 mM DMSO stock solution, compound dilutions in 50% acetonitrile/buffer (v/v) were prepared to the theoretical concentrations of 0 μM (blank), 10 μM, 25 μM, 50 μM, 100 μM and 200 μM with 2% final DMSO to generate calibration curves. Calibration standards were diluted 100-fold with 50% acetonitrile/water (v/v) mixes before LC-MS/MS measurement (systems API4000 QTRAP).

The nature of data set [2]: Thermodynamic solubility protocol 1 (PBS pH 7.4, citrate buffer pH 3.0). The format is physicochemical. The conditions noted are these: 25° C. How it is done: In a 8 mL glass vial, 1-2 mg of dry matter of the test compound were mixed with the suitable buffers (phosphate-buffered saline pH 7.4 (138 mM NaCl, 2.7 mM KCl, 10 mM K-phosphate) or 100 mM citrate buffer pH 3.0) to reach a theoretical concentration of 4 mM. The solutions were allowed to further equilibrate at 25° C. on a thermostatic shaker. After 4 and 24 hours of shaking, respectively, the incubation mixtures were filtered through HTS filter plates using a vacuum manifold. The filtrates of test compounds were diluted 2-fold with acetonitrile with 4% DMSO before measuring. In parallel, using a 20 mM DMSO stock solution, compound dilutions in 50% acetonitrile/buffer were prepared to the theoretical concentrations of 0 μM (blank), 10 μM, 25 μM, 50 μM, 100 μM and 200 μM with 2% final DMSO to generate calibration curves.
Ondansetron (Sigma Aldrich USA, cat #03639) was used as a reference to control proper assay performance. 200 μl of each sample were transferred to a 96-well plate and solubility was measured in a 200-550 nm range (in steps of 5 nm). The measurements were performed using a Spectra Max Plus reader in UV-Vis mode. Acquisition and analysis of the data were performed using SoftMax Pro v.5.4 (Molecular Devices) and Excel 2010 data analysis software. Proper absorbance wavelengths for calculations were selected for each compound manually based on absorbance maximums (absolute absorbance unit values for the minimum and maximum concentration points within 0-3 OD range). Each of the final datasets was additionally visually evaluated by the operator and goodness of fit (R2) is calculated for each calibration curve.

Data set [3] in a line: Metabolic stability in hepatocytes, human. The conditions noted are these: pooled cryopreserved hepatocytes, read-out: Human Clint (μL/min/10^6 cells). Format: in vitro ADME.
Data set [4] can be described thus: Liver microsomal stability, dog. The conditions noted are these: male, Beagle, pH 7.4, liver microsomes. The format is in vitro ADME. As for the experimental part:
Mouse hepatic microsomes were isolated from pooled, perfused livers of male CD1 mice. Rat hepatic microsomes were isolated from pooled, perfused livers of male Sprague Dawley rats. Dog hepatic microsomes were isolated from pooled, perfused livers of male Beagle dogs. The batches of microsomes were tested for quality control using Testosterone, Propranolol and Caffeine as reference compounds.
A 10 mM stock solution of compound in DMSO is diluted three-fold in DMSO. This pre-diluted compound solution is then further diluted to 2 μM in a 50 mM phosphate buffer (PBS, pH 7.4) and pre-warmed at 37° C. This compound dilution is mixed F2 with microsomal/cofactor mix at 37° C. under shaking at 300 rpm. Final reaction conditions are: 100 μL incubation volume, 1 μM of test compound (in duplicate), <0.1% DMSO, 0.5 mg/mL microsomes, 0.6 U/mL Glucose-6-phosphate-dehydrogenase (G6PDH, Roche, 10127671001), 3.3 mM MgCl2 (Sigma, M2670), 3.3 mM glucose-6-phosphate (Sigma, G-7879) and 1.3 mM NADP+ (Sigma, N-0505).
After 60 min of incubation at 300 rpm and 37° C., the reaction was stopped with 3 volumes of STOP solution (acetonitrile/MeOH 2/1 with diclofenac as internal standard). For the time point zero, 3 volumes of STOP solution were added to the compound dilution before the microsome mix was added. Six time points over 60 minutes have been analyzed. The samples of all time points were centrifuged, filtered and the supernatant analyzed by LCMS/MS (systems API4000).
The instrument responses (peak areas/IS peak area) were referenced to the zero time-point samples (considered as 100%) in order to determine the percentage of compound remaining.
Testosterone (1 μM) and Propranolol and Caffeine (1 μM) were used as reference compounds, being unstable and stable compounds respectively. If the microsomal stability values for these controls are not in the range determined by the historical data, the assay is not validated. The solubility of the compound in the final test concentration in 50 mM buffer pH 7.4 is checked by microscope to indicate whether precipitation is observed or not. If a precipitate is observed, no data of microsomal stability is generated.

Regarding `CC(C)Cc1cc(F)c(-c2nn[nH]n2)c(N2CCN(Cc3cccnn3)[C@@H](C)C2)c1` [Compound A-174, 3-[[(2S)-4-[3-fluoro-5-isobutyl-2-(2H-tetrazol-5-yl)phenyl]-2-methyl-piperazin-1-yl]methyl]pyridazine], in data set [1] (time point 4 h), the “TSOL FaSSIF pH 6.5” value was over 400 μM and the “TSOL FeSSIF pH 5.0” value is recorded as over 400 μM. In data set [1] (time point 24 h), the “TSOL FaSSIF pH 6.5” value is given as over 400 μM and the “TSOL FeSSIF pH 5.0” value is over 400 μM. Moreover, in data set [2] (time point 4 h), the “TSOL pH 3.0” value is at least 400 μM and the “TSOL pH 7.4” value was over 400 μM. Moreover, in data set [2] (time point 24 h), the “TSOL pH 3.0” value was at least 400 μM and the “TSOL pH 7.4” value is recorded as over 400 μM. Also, the hepatocyte CLint at 1 µM in data set [3] was under 2.9 µL/min/1e6 cells. Moreover, the microsomal CLint at 1 µM in data set [4] is under 11.7 µL/min/mg.

On to `CC(C)Cc1cc(F)c(-c2nn[nH]n2)c(N2CCN(Cc3ccccn3)[C@@H](C)C2)c1` [Compound A-217, (2S)-4-[3-fluoro-5-isobutyl-2-(2H-tetrazol-5-yl)phenyl]-2-methyl-1-(2-pyridylmethyl)piperazine], for which the hepatocyte CLint at 1 µM in data set [3] turned out to be 5.8 µL/min/1e6 cells. Moreover, the microsomal CLint at 1 µM in data set [4] was under 11.5 µL/min/mg.

The values are drawn from patent publication US20240368133A1, “Compounds for the Treatment of Pain, in Particular, Neuropathic Pain, and/or Other Diseases or Disorders that are Associated with AT2R and/or AT2R Mediated Signaling” (Confo Therapeutics N.V., priority 2021, published 2024).
